Measurements: patent publication US20090099231A1, “3-Sulfonylamino-Pyrrolidine-2-One Derivatives as Factor Xa Inhibitors” (priority 2005, published 2009)
Where a name gives a salt, the structure may show the parent alone.

Assays:
human plasma = test: Measurement of Prothrombin Time (PT), time to clot formation in plasma; settings: pooled plasma from 4 donors, test compound 0.03 to 100 uM, Thromboplastin C Plus
Procedure: Blood was collected into a sodium citrate solution (ratio 9:1) to give a final concentration of 0.38% citrate. Plasma was generated by centrifugation of citrated blood samples at 1200×g for 20 min at 4° C. and stored at −20° C. until use.
The PT test was performed using the BCS Coagulation Analyzer (Dade Behring). For assay, 50 ul of plasma containing test compound at concentrations ranging from 0.03 to 100 uM (made from a 100 uM stock containing 1% DMSO in plasma) was combined with 100 ul of Thromboplastin C Plus (Dade Behring). Upon addition of the reagents, absorbance at 405 nm was monitored and time to clot formation is determined (normal range for human plasma is 10.6-12.4 seconds).

human Factor Xa = human Factor Xa (Homo sapiens, UniProt P00742); test: In vitro assay for inhibition of Factor Xa (fluorogenic assay, Rhodamine 110 bis-Cbz-glycylglycyl-L-arginine amide substrate); assay type: biochemical; settings: for Factor Xa inhibitory activity: human Factor Xa 0.0003 U.ml-1, substrate 10 μM, 15 min preincubation, room temperature, pH 7.4; for Ki: Ki=IC50/(1+[Substrate]/Km), i.e. IC50 divided by 1.6, human Factor Xa fluorogenic assay
Chain of human Factor Xa (P00742 235-488 limits assumed): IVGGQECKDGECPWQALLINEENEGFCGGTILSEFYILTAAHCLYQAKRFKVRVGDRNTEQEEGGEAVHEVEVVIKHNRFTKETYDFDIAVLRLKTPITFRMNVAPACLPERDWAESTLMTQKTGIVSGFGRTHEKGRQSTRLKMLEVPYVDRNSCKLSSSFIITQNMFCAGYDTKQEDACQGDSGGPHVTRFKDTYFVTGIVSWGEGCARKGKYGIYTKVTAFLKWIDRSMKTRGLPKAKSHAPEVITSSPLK
Chain of human Factor Xa (P00742 41-179 partner limits assumed): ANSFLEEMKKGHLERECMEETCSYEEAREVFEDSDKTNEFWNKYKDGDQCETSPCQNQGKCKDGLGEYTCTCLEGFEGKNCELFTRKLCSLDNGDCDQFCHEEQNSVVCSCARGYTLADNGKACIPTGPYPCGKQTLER
Procedure: Compounds of the present invention were tested for their Factor Xa inhibitory activity as determined in vitro by their ability to inhibit human Factor Xa in a fluorogenic assay, using Rhodamine 110, bis-Cbz-glycylglycyl-L-arginine amide as the fluorogenic substrate. Compounds were diluted from a 10 mM stock solution in dimethylsulfoxide at appropriate concentrations. Assay was performed at room temperature using buffer consisting of: 50 mM Tris-HCl, 150 mM NaCl, 5 mM CaCl2, pH 7.4 containing human Factor Xa (final concentration of 0.0003 U.ml-1). Compound and enzyme were preincubated for 15 min prior to addition of the substrate (final concentration of 10 μM). The reaction was stopped after 3 hrs with the addition of H-D-Phe-Pro-Arg-Chloromethylketone. An LJL-Analyst fluorimeter was used to monitor fluorescence with 485 nm excitation/535 nm emission. To obtain IC50 values the data were analysed using ActivityBase® and XLfit®.
Ki=IC50/(1+[Substrate]/Km)
The Ki value for the above assay can be obtained by dividing the IC50 value by 1.6.

Row | Compound | activity in prothrombin time (PT) test (human plasma) | Factor Xa inhibitory activity (human Factor Xa) | Ki (human Factor Xa) [µM]
1 | Cl.O=C1[C@@H](NS(=O)(=O)CCc2ccc(Cl)s2)CCN1c1ccc2c(c1)CNCC2 [Example 12, 2-(5-Chloro-2-thienyl)-N-[(3S)-2-oxo-1-(1,2,3,4-tetrahydro-7-isoquinolinyl)-3-pyrrolidinyl]ethanesulfonamide hydrochloride] | exhibit activity | exhibit Factor Xa inhibitory activity | 
2 | Cl.O=C1[C@@H](NS(=O)(=O)/C=C/c2ccc(Cl)s2)CCN1c1ccc2c(c1)CCNC2 [Example 2, (E)-2-(5-Chloro-2-thienyl)-N-[(3S)-2-oxo-1-(1,2,3,4-tetrahydro-6-isoquinolinyl)-3-pyrrolidinyl]ethenesulfonamide hydrochloride] | exhibit activity | exhibit Factor Xa inhibitory activity | 
3 | Cl.O=C1[C@@H](NS(=O)(=O)/C=C/c2ccc(Cl)s2)CCN1c1cc2c(cc1Cl)CNCC2 [Example 25, (E)-N-[(3S)-1-(7-Chloro-1,2,3,4-tetrahydro-6-isoquinolinyl)-2-oxo-3-pyrrolidinyl]-2-(5-chloro-2-thienyl)ethenesulfonamide hydrochloride] | exhibit activity | exhibit Factor Xa inhibitory activity | 
4 | Cl.O=C1[C@@H](NS(=O)(=O)/C=C/c2ccc(Cl)s2)CCN1c1cc2c(cc1F)CNCC2 [Example 22, (E)-2-(5-Chloro-2-thienyl)-N-[(3S)-1-(7-fluoro-1,2,3,4-tetrahydro-6-isoquinolinyl)-2-oxo-3-pyrrolidinyl]ethenesulfonamide hydrochloride] | exhibit activity | exhibit Factor Xa inhibitory activity | 
5 | CN1CCc2cc(N3CC[C@H](NS(=O)(=O)/C=C/c4ccc(Cl)cc4)C3=O)ccc2C1.O=CO [Example 37, (E)-2-(4-Chlorophenyl)-N-[(3S)-1-(2-methyl-1,2,3,4-tetrahydro-6-isoquinolinyl)-2-oxo-3-pyrrolidinyl]ethenesulfonamide formate] | exhibit activity | exhibit Factor Xa inhibitory activity | 
6 | O=C1[C@@H](NS(=O)(=O)c2ccc3c(Cl)c[nH]c3c2)CCN1c1ccc2c(c1)CNCC2.O=CO [Example 14, 3-Chloro-N-[(3S)-2-oxo-1-(1,2,3,4-tetrahydro-7-isoquinolinyl)-3-pyrrolidinyl]-1H-indole-6-sulfonamide formate] | exhibit activity | exhibit Factor Xa inhibitory activity | 
7 | CN1CCc2cc(N3CC[C@H](NS(=O)(=O)/C=C/c4ccc(Cl)s4)C3=O)ccc2C1.O=CO [Example 7, (E)-2-(5-Chloro-2-thienyl)-N-[(3S)-1-(2-methyl-1,2,3,4-tetrahydro-6-isoquinolinyl)-2-oxo-3-pyrrolidinyl]ethenesulfonamide formate] | exhibit activity | exhibit Factor Xa inhibitory activity | 
8 | Cl.O=C1[C@@H](NS(=O)(=O)c2ccc3cc(Cl)ccc3c2)CCN1c1ccc2c(c1)CNCC2 [Example 11, 6-Chloro-N-[(3S)-2-oxo-1-(1,2,3,4-tetrahydro-7-isoquinolinyl)-3-pyrrolidinyl]-2-naphthalenesulfonamide hydrochloride] | exhibit activity | exhibit Factor Xa inhibitory activity | 
9 | Cc1cc2c(cc1N1CC[C@H](NS(=O)(=O)/C=C/c3ccc(Cl)s3)C1=O)CCNC2.Cl [Example 28, (E)-2-(5-Chloro-2-thienyl)-N-[(3S)-1-(7-methyl-1,2,3,4-tetrahydro-6-isoquinolinyl)-2-oxo-3-pyrrolidinyl]ethenesulfonamide hydrochloride] | exhibit activity | exhibit Factor Xa inhibitory activity | 
10 | CC(C)N1CCc2cc(N3CC[C@H](NS(=O)(=O)c4ccc5cc(Cl)ccc5c4)C3=O)ccc2C1 [Example 30, 6-Chloro-N-{(3S)-1-[2-(1-methylethyl)-1,2,3,4-tetrahydro-6-isoquinolinyl]-2-oxo-3-pyrrolidinyl}-2-naphthalenesulfonamide] | exhibit activity | exhibit Factor Xa inhibitory activity | < 0.01
11 | Cl.O=C1[C@@H](NS(=O)(=O)c2ccc3cc(Cl)ccc3c2)CCN1c1cc2c(cc1F)CNCC2 [Example 20, 6-Chloro-N-[1-(7-fluoro-1,2,3,4-tetrahydro-6-isoquinolinyl)-2-oxo-3-pyrrolidinyl]-2-naphthalenesulfonamide hydrochloride] | exhibit activity | exhibit Factor Xa inhibitory activity | 
12 | Cl.O=C1[C@H](NS(=O)(=O)c2ccc3cc(Cl)ccc3c2)CCN1c1ccc2c(c1)CCNC2 [Example 16, 6-Chloro-N-[(3R)-2-oxo-1-(1,2,3,4-tetrahydro-6-isoquinolinyl)-3-pyrrolidinyl]-2-naphthalenesulfonamide hydrochloride] | exhibit activity | exhibit Factor Xa inhibitory activity | 
13 | CN([C@H]1CCN(c2ccc3c(c2)CCNC3)C1=O)S(=O)(=O)/C=C/c1ccc(Cl)s1 [Example 34, (E)-2-(5-Chloro-2-thienyl)-N-methyl-N-[(3S)-2-oxo-1-(1,2,3,4-tetrahydro-6-isoquinolinyl)-3-pyrrolidinyl]ethenesulfonamide hydrochloride] |  | exhibit Factor Xa inhibitory activity | < 0.01
14 | Cl.O=C1[C@@H](NS(=O)(=O)c2ccc3c(Cl)c[nH]c3c2)CCN1c1ccc2c(c1F)CCNC2 [Example 19, 3-Chloro-N-[(3S)-1-(5-fluoro-1,2,3,4-tetrahydro-6-isoquinolinyl)-2-oxo-3-pyrrolidinyl]-1H-indole-6-sulfonamide hydrochloride] | exhibit activity | exhibit Factor Xa inhibitory activity | 
15 | CN1CCc2cc(N3CC[C@H](NS(=O)(=O)c4cc5ccc(Cl)cc5s4)C3=O)ccc2C1.O=CO [Example 8, 6-Chloro-N-[(3S)-1-(2-methyl-1,2,3,4-tetrahydro-6-isoquinolinyl)-2-oxo-3-pyrrolidinyl]-1-benzothiophene-2-sulfonamide formate] | exhibit activity | exhibit Factor Xa inhibitory activity | < 0.01
16 | O=C1[C@@H](NS(=O)(=O)c2ccc3cc[nH]c3c2)CCN1c1ccc2c(c1)CCNC2.O=CO [Example 5, N-[(3S)-2-Oxo-1-(1,2,3,4-tetrahydro-6-isoquinolinyl)-3-pyrrolidinyl]-1H-indole-6-sulfonamide formate] | exhibit activity |  | 
17 | Cl.O=C1[C@@H](NS(=O)(=O)c2cc3ccc(Cl)cc3s2)CCN1c1cc2c(cc1F)CNCC2 [Example 21, 6-Chloro-N-[(3S)-1-(7-fluoro-1,2,3,4-tetrahydro-6-isoquinolinyl)-2-oxo-3-pyrrolidinyl]-1-benzothiophene-2-sulfonamide hydrochloride] | exhibit activity | exhibit Factor Xa inhibitory activity | < 0.01
18 | Cc1cc2c(cc1N1CC[C@H](NS(=O)(=O)c3ccc4c(Cl)c[nH]c4c3)C1=O)CCNC2.Cl [Example 29, 3-Chloro-N-[(3S)-1-(7-methyl-1,2,3,4-tetrahydro-6-isoquinolinyl)-2-oxo-3-pyrrolidinyl]-1H-indole-6-sulfonamide hydrochloride] | exhibit activity | exhibit Factor Xa inhibitory activity | 
19 | Cl.O=C1[C@@H](NS(=O)(=O)c2ccc3cc(Cl)ccc3c2)CCN1c1cc2c(cc1Cl)CNCC2 [Example 24, 6-Chloro-N-[(3S)-1-(7-chloro-1,2,3,4-tetrahydro-6-isoquinolinyl)-2-oxo-3-pyrrolidinyl]-2-naphthalenesulfonamide hydrochloride] | exhibit activity | exhibit Factor Xa inhibitory activity | 
20 | Cl.O=C1[C@@H](NS(=O)(=O)/C=C/c2ccc(Cl)s2)CCN1c1ccc2c(c1)CNCC2 [Example 13, (E)-2-(5-Chloro-2-thienyl)-N-[(3S)-2-oxo-1-(1,2,3,4-tetrahydro-7-isoquinolinyl)-3-pyrrolidinyl]ethenesulfonamide hydrochloride] | exhibit activity | exhibit Factor Xa inhibitory activity | 
21 | O=C1[C@@H](NS(=O)(=O)c2ccc3cc[nH]c3c2)CCN1c1ccc2c(c1)CNCC2.O=CO [Example 15, N-[(3S)-2-Oxo-1-(1,2,3,4-tetrahydro-7-isoquinolinyl)-3-pyrrolidinyl]-1H-indole-6-sulfonamide formate] |  | exhibit Factor Xa inhibitory activity | 
